Experimental data as given in patent US3966732A, “Nitroimidazolyl pyrimidines” (Schering Aktiengesellschaft, priority 1972, dated 1976).
≈ marks a conversion by molar mass, not a printed value.

Columns and labels:
Trichomonas vaginalis = assay: Minimum inhibitory concentration against Trichomonas vaginalis (own test); assay type: cell-based; settings: comparison with metronidazole
[1] = Grunberg and Titsworth; cited from earlier work
trichomonads [2] = settings: Lancini et al.; cited from earlier work
trichomonads [3] = settings: Grunberg and Titsworth; cited from earlier work

SMILES | MIC (Trichomonas vaginalis) [µg/mL] | further results
Cn1c([N+](=O)[O-])cnc1-c1nc(-c2cccs2)cc(C(F)(F)F)n1 [4-Trifluoromethyl-2-(5-nitro-1-methyl-2-imidazolyl)-6-(2-thienyl)-pyrimidin] | 0.2 (≈ 0.563 µM) | –
O=[N+]([O-])c1ncc[nH]1 [azomycin, 2-nitroimidazole] | – | LD50 value (in words, versus metronidazole) [1]: considerably less favorable; effectiveness in vitro compared with metronidazole (trichomonads [2]): no more effective in vitro than metronidazole; ED50 value (in words, versus metronidazole) (trichomonads [3]): considerably less favorable
Cc1cc(-c2ccccc2)nc(-c2ncc([N+](=O)[O-])n2C)n1 [4-Methyl-6-phenyl-2-(5-nitro-1-methyl-2-imidazolyl)pyrimidine] | 0.2 (≈ 0.677 µM) | –
Cc1ncc([N+](=O)[O-])n1CCO [Metronidazole, 5-nitro-2-methyl-1-(2-hydroxyethyl)-imidazole] | 1.6 (≈ 9.35 µM) | –
Cc1nc(-c2ncc([N+](=O)[O-])n2C)nc2c1CCc1ccccc1-2 [2-(5-Nitro-1-methyl-2-imidazolyl)-4-methyl-5,6-dihydrobenzo[h]quinazoline] | 0.1 (≈ 0.311 µM) | –
Cc1cc(C)nc(-c2ncc([N+](=O)[O-])n2C)n1 [4,6-Dimethyl-2-(5-nitro-1-methyl-2-imidazolyl)-pyrimidine] | 0.4 (≈ 1.72 µM) | –
